“And” between values parts separate entries of the source, which are not always exact repeats. Equal values may be shown once. Read-outs that look alike come from different tables or passages of the source.
How the values were obtained:
P. berghei hepatic stage [1] = test system: P. berghei hepatic stage; parameters: method as in Bártolo et al., 2021; Alves et al., 2021c; settings: hepatic infection; ref Bártolo et al., 2021; Alves et al., 2021c; cited from earlier work
HIV-1 SG3.1 [2] = settings: ref Bártolo et al., 2021, cited from earlier work; for IC50: Alves et al., 2021c
HIV-2 03PTHCC19 [3] = test system: HIV-2 03PTHCC19; parameters: method as in Bártolo et al., 2021; settings: ref Bártolo et al., 2021, cited from earlier work
TZM-bl cells = test system: TZM-bl cells; parameters: method as in Bártolo et al., 2021; settings: lead molecule, ref Bártolo et al., 2021; cited from earlier work
HIV protease = test system: HIV protease; parameters: method as in Bártolo et al., 2021; settings: ref Bártolo et al., 2021; cited from earlier work
[4] = test system: P. falciparum strain NF54; parameters: method as in Bártolo et al., 2021; Alves et al., 2021c; settings: erythrocytic infection; ref Bártolo et al., 2021; Alves et al., 2021c; cited from earlier work
P. berghei hepatic stage [5] = assay: In vitro hepatic infection of Huh7 cells by luciferase-expressing P. berghei; assay type: cell-based; settings: Plasmodium berghei; for inhibition at 1 µM: Huh-7, read-out: percentage of inhibition of hepatic infection; for IC50: Huh-7, hepatic stage, Huh7 cells, 48 h after infection
Procedure: The inhibitory activity of test compounds on in vitro hepatic infection by P. berghei was determined by comparing the parasite load in compound- and solvent-treated P. berghei-infected Huh7 cells. Infection load was assessed by measurement of luminescence intensity in Huh7 cells infected, with a firefly luciferase-expressing P. berghei line, as previously described ([Ploemen et al., 2009]; [António et al., 2017]). Briefly, Huh7 cells were seeded in 96-well plates (1.0 × 10^4 cells per well) the day before drug treatment and infection. The medium was replaced by another medium containing the appropriate concentration of each compound approximately 1 h prior to infection with sporozoites freshly obtained through disruption of salivary glands of infected female Anopheles stephensi mosquitoes. Sporozoite addition was followed by centrifugation at 1,800 g for 5 min. Parasite infection load was measured 48 h after infection by a bioluminescence assay (Biotium). Cell confluence, a surrogate measure of compound toxicity to Huh7 cells, was assessed by fluorescence measurements using the alamarBlue assay, according to the manufacturer’s instructions. […] Specifically, non-linear regression analysis was employed to fit the normalized results of the dose-response curves, and IC50 values were determined using GraphPad Prism 8.0 (GraphPad Software, La Jolla, California, United States).

[6] = test system: P. falciparum strain NF54; assay: Blood stage antiplasmodial activity, SYBR green I flow cytometry; assay type: cell-based; settings: Plasmodium falciparum, NF54, 48 h
Procedure: Ring-stage synchronized cultures of P. falciparum strain NF54 at 2.5% hematocrit and at approximately 1% parasitemia were incubated with test compounds or dimethyl sulfoxide (DMSO, vehicle control) in 96-well plates for 48 h at 37°C in a 5% CO2 and 5% O2 atmosphere. Stock solutions of chloroquine (positive control) and compounds 9i, 12a, and 14a were prepared in DMSO. Working solutions were prepared from the stock solutions in complete malaria culture medium (CMCM), which consists of RPMI 1640 supplemented with 25 mM HEPES, 2.4 mM L-glutamine, 50 μg/ml gentamicin, 0.5% w/v Albumax, 11 mM glucose, 1.47 mM hypoxanthine, and 37.3 mM NaHCO3. For each measurement, 5 μl of the culture (approximately 800,000 cells) were stained with the DNA-specific dye SYBR green I. After 20 min of incubation in the dark, the stained sample was analyzed by flow cytometry. Approximately 100,000 events were analyzed in each flow cytometry measurement. Two independent experiments were performed, and all samples were analyzed in triplicate.

HIV-2 03PTHCC19 [7] = assay: microbe, parasite or virus in culture; settings: Human immunodeficiency virus 2, TZM-bl; for IC50 / IC90: 48 h; for IC50: read-out: IC50 HIV-2; for IC90: read-out: IC90 HIV-2; for inhibition at 25 µg/mL: read-out: MPI (%) 25 μg/mL
Excerpt: (§1) The HIV-1 SG3.1 is a reference subtype B strain that uses the CXCR4 coreceptor. It was obtained by transfection of HEK293T cells with pSG3.1 plasmid using jetPRIME transfection reagent (Polyplus-transfection SA, Illkirch, France), according to the instructions of the manufacturer.
(§2) Briefly, TZM-bl cells were infected with 200 TCID50 of HIV-1 or HIV-2 in the presence of serial-fold dilutions of the compounds in the growth medium, supplemented with diethylaminoethyl-dextran (DEAE-dextran). After 48 h of infection, luciferase expression was quantified with Pierce Firefly Luc One-Step Glow Assay Kit (ThermoFisher Scientific, Rockford, United States), according to the instructions of the manufacturer. For each compound dilution, the assay was set up in triplicate wells. Virus controls, cell controls, and inhibitors controls (drugs with a known action against each virus) were employed.

HIV-1 SG3.1 [8] = assay: microbe, parasite or virus in culture; settings: for IC50 / IC90: 48 h; for IC90: read-out: IC90 HIV-1; for inhibition at 25 µg/mL: read-out: MPI (%) 25 μg/mL
Excerpt: as §1, §2

[9] = Cellular viability assay (alamarBlue) in TZM-bl cells; assay type: cell-based; settings: human, 50% cytotoxic concentration
Procedure: Before the antiviral activity screening, all spirocyclopentene-β-lactams were assayed for their in vitro cytotoxic activity (CC50) in TZM-bl cells (Table 4).
TZM-bl cells (AIDS Research and Reference Reagent Program, National Institutes of Health, United States) were cultured in complete growth medium consisting of Dulbecco’s Minimal Essential Medium (DMEM) supplemented with 10% fetal bovine serum (FBS), 100 U/ml of penicillin–streptomycin (Gibco/Invitrogen, United States), 1 mM of sodium pyruvate (Gibco/Invitrogen, United States), 2 mM of L-glutamine (Gibco/Invitrogen, United States), and 1 mM of non-essential amino acids (Gibco/Invitrogen, United States). Cell cultures were maintained at 37°C in 5% CO2.
The in vitro cytotoxicity of test compounds was evaluated in TZM-bl cells using alamarBlue cell viability reagent (Life Technologies, United States), according to the instructions of the manufacturer. The cells were cultured in the presence and absence of serial-fold dilutions of the test compounds. Each dilution of each compound was performed in triplicate wells. Medium controls (only growth medium), cell controls (cells without test compound), and cytotoxicity controls (a compound that kills cells) were employed in each assay.

[10] = Human immunodeficiency virus 1, TZM-bl, read-out: IC50 HIV-1, TZM-bl cells, 48 h
[11] = Human immunodeficiency virus 1, TZM-bl
[12] = read-out: IC50 HIV-1, TZM-bl cells

Row | SMILES | IC50 (P. berghei hepatic stage [1]) | IC50 (HIV-1 SG3.1 [2]) | IC50 [4] | inhibition at 1 µM (P. berghei hepatic stage [5]) | IC50 (P. berghei hepatic stage [5]) | IC50 [6] | melting point | IC50 (HIV-2 03PTHCC19 [7]) | IC90 (HIV-2 03PTHCC19 [7]) | inhibition at 25 µg/mL (HIV-2 03PTHCC19 [7]) | IC50 (HIV-1 SG3.1 [8]; [10]) | IC90 (HIV-1 SG3.1 [8]; [11]) | inhibition at 25 µg/mL (HIV-1 SG3.1 [8]; [11]) | CC50 [9] | IC50 (HIV-1 SG3.1 [8]; [12]) | further results
1 | COC(=O)C1C(C(=O)OCc2ccccc2)=CCC12C(=O)N1C(C(=O)OC(c3ccccc3)c3ccccc3)C(C)(C)SC12 (centres unmarked) [BSS-722A] | < 5000 nM | 650 nM |  |  |  |  |  |  |  |  |  |  |  |  |  | IC50 (HIV-2 03PTHCC19 [3]): 510 nM
2 | CC1(C)SC2N(C(=O)C23CC=C(C(=O)OCc2ccccc2)C3C(=O)c2ccccc2)C1C(=O)OC(c1ccccc1)c1ccccc1 (centres unmarked) [BSS-730A] | 550 ± 140 nM | 14 nM | 430 ± 40 nM |  |  |  |  |  |  |  |  |  |  |  |  | CC50 (TZM-bl cells): 76800 nM; MPI (%) 25 μg/mL (HIV-1 SG3.1 [2]; HIV-1, 25 μg/mL, lead molecule): 99%; Therapeutic index (CC50/IC50) (HIV-1 SG3.1 [2]; HIV-1, lead molecule): 5488.57; IC90 (HIV-1 SG3.1 [2]; lead molecule): 25 nM; MPI (%) 25 μg/mL (HIV-2 03PTHCC19 [3]; HIV-2, 25 μg/mL, lead molecule): 99%; Therapeutic index (CC50/IC50) (HIV-2 03PTHCC19 [3]; HIV-2, lead molecule): 9605.00; IC90 (HIV-2 03PTHCC19 [3]; lead molecule): 64 nM; IC50 (HIV-2 03PTHCC19 [3]): 8 nM; HIV antiprotease activity (in words) (HIV protease): no HIV antiprotease activity
3 | COC(=O)C1=CCC2(C(=O)N3C(C(=O)OC(c4ccccc4)c4ccccc4)C(C)(C)SC32)C1C(=O)Oc1ccccc1 (centres unmarked) [Compound 4] | 2290 nM |  | 1260 nM |  |  |  |  |  |  |  |  |  |  |  |  | 
4 | CCOC(=O)C1=CCC2(C(=O)N3C(C(=O)OC(c4ccccc4)c4ccccc4)C(C)(C)SC32)C1C(=O)c1ccccc1 (centres unmarked) [Compound 5] | 1920 nM | 305 nM and < 300 nM | 844 nM |  |  |  |  |  |  |  |  |  |  |  |  | 
5 | COc1ccc(COC(=O)C2=CCC3(C(=O)N4C(C(=O)OC(c5ccccc5)c5ccccc5)C(C)(C)SC43)C2C(=O)c2ccccc2)cc1 (centres unmarked) [Compound 9i, (1’R,2’R)-Benzhydryl spiro[(2-benzoyl-3-(4-methoxybenzyloxycarbonyl)cyclopent-3-ene)-1’,6-penicillanate]] |  |  |  | < 50% | 285 ± 44 nM | 336 ± 67 nM | 65.3 to 67.4 °C | 111 nM | 350 nM | 100% | 15 nM | 20 nM | 100% | 35800 nM |  | 
6 | CC1(C)SC2N(C(=O)C23CC=C(C(=O)OCc2ccccc2)C3C(=O)c2ccc(F)cc2)C1C(=O)OC(c1ccccc1)c1ccccc1 (stereo not drawn) [Compound 12a, (1′R,2′R)-benzhydryl spiro[(2-(4-fluorobenzoyl)-3-benzyloxycarbonylcyclopent-3-ene)-1′,6-penicillanate]] |  |  |  | < 50% | 924 ± 27 nM | 560 ± 126 nM | 64.5 to 66.5 °C | 11 nM | 55 nM | 100% | 19 nM | 54 nM | 93% | 58100 nM |  | 
7 | COc1ccc(COC(=O)C2=CCC3(C(=O)N4C(C(=O)OC(c5ccccc5)c5ccccc5)C(C)(C)SC43)C2C(=O)c2ccc(F)cc2)cc1 (stereo not drawn) [Compound 14a, (1′R,2′R)-benzhydryl spiro[(2-(4-fluorobenzoyl)-3-(4-methoxybenzyloxycarbonyl)cyclopent-3-ene)-1′,6-penicillanate]] |  |  |  | < 50% | 750 ± 107 nM | 292 ± 62 nM | 72.9 to 74.9 °C | 13 nM | 51 nM | 100% | < 20 nM | 48 nM | 100% | 75100 nM | 12 nM | 
8 | CC1(C)SC2N(C(=O)C23CC=C(C(=O)OCC=Cc2ccccc2)C3C(=O)c2ccc(F)cc2)C1C(=O)OC(c1ccccc1)c1ccccc1 (centres unmarked) [Compound 14c, (1’R,2’R)-Benzhydryl spiro[(2-(4-fluorobenzoyl)-3-cinnamyloxycarbonylcyclopent-3-ene)-1’,6-penicillanate]] |  |  |  |  | 1000 to 10000 nM |  | 76.5 to 78.5 °C | 39 nM | 103 nM | 100% | < 20 nM | 18 nM | 100% | 77600 nM | 15 nM | 
9 | COc1ccc(COC(=O)C2=CCC3(C(=O)N4C(C(=O)OC(c5ccccc5)c5ccccc5)C(C)(C)SC43)C2C(=O)c2ccc(Cl)cc2)cc1 (centres unmarked) [Compound 14d, (1’R,2’R)-Benzhydryl spiro[(2-(4-chlorobenzoyl)-3-(4-methoxybenzyloxycarbonyl)cyclopent-3-ene)-1’,6-penicillanate]] |  |  |  |  | 2000 ± 458 nM |  | 76.1 to 78.1 °C | 65 nM | 123 nM | 100% | < 20 nM | 19 nM | 100% | 134000 nM | 15 nM | 
10 | COc1ccc(COC(=O)C2=CCC3(C(=O)N4C(C(=O)OC(c5ccccc5)c5ccccc5)C(C)(C)SC43)C2C(=O)c2ccc(Br)cc2)cc1 (centres unmarked) [Compound 14g, (1’R,2’R)-Benzhydryl spiro[(2-(4-bromobenzoyl)-3-(4-methoxybenzyloxycarbonyl)cyclopent-3-ene)-1’,6-penicillanate]] |  |  |  |  | 2590 ± 219 nM |  | 82.6 to 84.6 °C | 87 nM | 137 nM | 100% | 30 nM | 99 nM | 100% | 101000 nM |  | 

— article PMC9585939, “Unveiling a family of spiro-β-lactams with anti-HIV and antiplasmodial activity via phosphine-catalyzed [3+2] annulation of 6-alkylidene-penicillanates and allenoates” (Frontiers in Chemistry, 2022)
